Experimental data from publication PMC4167698, “Fatty Acid Esters of Phloridzin Induce Apoptosis of Human Liver Cancer Cells through Altered Gene Expression” (PLoS ONE, 2014).

Experiments:
HepG2 cells [1] = assay: MTS cell proliferation assay, HepG2; format: cell-based, human; conditions: for EC50: MTS
Procedure: (§1) Cell viability was determined by using the MTS assay. In brief, HepG2 cells (5×10^3 cells/100 µL/well), MDA-MB-231 (5×10^3 cells/100 µL/well), THP-1 (25×10^3/100 µL/well), normal human and rat hepatocytes (1×10^4 cells/100 µL/well) were plated in triplicate, in a 96 well sterile flat bottom tissue culture plates. […] Thereby, cells were exposed to various concentrations (0.1, 1, 10, 25, 50, 75, 100 µM) of each treatment. Controls consist of cells with media containing DMSO (<0.5%), test blank wells contained the test compound in media with no cells and blank wells contained media with no cells. After additional 3, 6, 12, 18 or 24 h, 20 µL of the MTS reagent in combination with the electron coupling agent, phenazine methosulfate were added to the wells and cells were incubated in a humidified incubator for 3 h. Absorbance at 490 nm (OD490) was measured by using a Flurostar Optima microplate reader (BMG Labtech, Cary, NC, USA) to obtain the number of viable cells relative to the control population. Percentage of viability of the test compound treated cells are expressed as percentage compared to control (<0.5% DMSO). […] The selective index (SI) of the fatty acid esters of phloridzin is defined as the ratio of cytotoxicity (EC50 values) on normal HP-F cells to solid cancer HepG2, MDA-MB-231 cells (SI = EC50 on HP-F cells/EC50 on solid cancer cells). Samples with SI values greater than three were considered to have high selectivity towards cancer cells.

HepG2 cells [2] = assay: LDH release cytotoxicity assay; format: cell-based, human; conditions: HepG2, 100 µM, 6 h, relative to maximum release by 1% Triton X-100
Procedure: Lactate dehydrogenase (LDH) is a stable cytosolic enzyme that is released upon membrane damage in apoptotic/necrotic cells. LDH activity was measured using CytoTox 96 Non-Radioactive Cytotoxicity Assay (Promega, Madison, WI, USA), in which LDH released in culture supernatants is measured with a coupled enzymatic assay, resulting in conversion of a tetrazolium salt into a red formazan product. […] After centrifugation, the supernatant was removed to an assay plate, and the LDH released from the cells into culture medium was measured. The maximal release was obtained after treating control cells with 1% Triton X-100 for 30 min at room temperature. The apoptotic/necrotic percentage was expressed using the formula: (sample value/maximal release)×100%.

MDA-MB-231 cells = assay: MTS cell proliferation assay, MDA-MB-231; format: cell-based, human; conditions: for EC50: MTS
Procedure: as §1

THP-1 cells = assay: MTS cell proliferation assay, THP-1; format: cell-based, human; conditions: MTS
Procedure: as §1

[3] = test system: normal human hepatocytes (HP-F); assay: MTS cell viability assay, normal human hepatocytes; format: cell-based; conditions: 24 h
Procedure: as §1

HepG2 cells [4] = assay: DNA fragmentation (apoptotic DNA ladder); format: cell-based, human; conditions: HepG2, 100 µM, 24 h, agarose gel
Procedure: HepG2 (1×10^5) cells were seeded in 24-well culture plates and were allowed to adhere overnight. […] The plates were re-incubated for another 24 h. DNA fragmentation was detected using ApoTarget Quick Apoptotic DNA Ladder Detection Kit (Invitrogen, Burlington, ON, Canada) according to the manufacturer’s protocol. The principle involves detecting the internucleosomal DNA fragments formed during apoptosis. Briefly, floating dead cells and trypsinized adherent cells were collected and centrifuged at 1,000 rpm for 10 min. After washing with diluted phosphate buffered saline, the cells were lysed with 35 µL TE lysis buffer (a kit component). To the lysate, 5 µL of Enzyme A (a kit component) was added and incubated at 37°C for 10 min. Afterwards, 5 µL of Enzyme B (a kit component) was added, gently mixed and incubated at 50°C for 30 min. The DNA was precipitated with the ammonium acetate and absolute ethanol at −20°C. After centrifugation (10 min at 12,000 rpm) and air drying, the DNA pellet was dissolved in 30 µL of DNA suspension buffer. For detecting the DNA ladder, the extracted DNA samples were run on a 1.2% agarose gel containing 0.5 µg/mL gel red in Tris-Borate-EDTA (TBE) buffer. After electrophoresis, the gel image was captured using Gel Doc 100 system (Bio-Rad, Mississauga, ON, Canada).

HepG2 cells [5] = assay: Mitochondrial membrane potential (JC-1); format: cell-based, human; conditions: HepG2, 100 µM, 24 h
Procedure: HepG2 cells were seeded in a black walled clear bottom 96-well sterile flat bottom tissue culture plates (BD Biosciences, USA) at a density of 5×10^4 cells/well (100 µL) and incubated in a CO2 incubator for 24 h at 37°C. […] The staining solution JC-1 was prepared with PBS and 5 µM was added to each well. The cells were further incubated in a CO2 incubator at 37°C for 1 h. After washing the plate with PBS twice, the fluorescence was measured using a Fluostar Optima microplate reader (BMG Labtech) at 535 nm for JC-1 monomers and at 590 nm for JC-1 aggregates.

human DNA topo IIα = target: T1, human DNA topo IIα (Homo sapiens, UniProt P11388); assay: Topoisomerase IIα catalytic activity (pHOT1 DNA relaxation); format: biochemical; conditions: 100 µM, 4 units enzyme, 37°C 30 min
T1 construct: purchased TopoGEN, Inc., Columbus, OH, USA
T1 sequence (P11388 whole entry): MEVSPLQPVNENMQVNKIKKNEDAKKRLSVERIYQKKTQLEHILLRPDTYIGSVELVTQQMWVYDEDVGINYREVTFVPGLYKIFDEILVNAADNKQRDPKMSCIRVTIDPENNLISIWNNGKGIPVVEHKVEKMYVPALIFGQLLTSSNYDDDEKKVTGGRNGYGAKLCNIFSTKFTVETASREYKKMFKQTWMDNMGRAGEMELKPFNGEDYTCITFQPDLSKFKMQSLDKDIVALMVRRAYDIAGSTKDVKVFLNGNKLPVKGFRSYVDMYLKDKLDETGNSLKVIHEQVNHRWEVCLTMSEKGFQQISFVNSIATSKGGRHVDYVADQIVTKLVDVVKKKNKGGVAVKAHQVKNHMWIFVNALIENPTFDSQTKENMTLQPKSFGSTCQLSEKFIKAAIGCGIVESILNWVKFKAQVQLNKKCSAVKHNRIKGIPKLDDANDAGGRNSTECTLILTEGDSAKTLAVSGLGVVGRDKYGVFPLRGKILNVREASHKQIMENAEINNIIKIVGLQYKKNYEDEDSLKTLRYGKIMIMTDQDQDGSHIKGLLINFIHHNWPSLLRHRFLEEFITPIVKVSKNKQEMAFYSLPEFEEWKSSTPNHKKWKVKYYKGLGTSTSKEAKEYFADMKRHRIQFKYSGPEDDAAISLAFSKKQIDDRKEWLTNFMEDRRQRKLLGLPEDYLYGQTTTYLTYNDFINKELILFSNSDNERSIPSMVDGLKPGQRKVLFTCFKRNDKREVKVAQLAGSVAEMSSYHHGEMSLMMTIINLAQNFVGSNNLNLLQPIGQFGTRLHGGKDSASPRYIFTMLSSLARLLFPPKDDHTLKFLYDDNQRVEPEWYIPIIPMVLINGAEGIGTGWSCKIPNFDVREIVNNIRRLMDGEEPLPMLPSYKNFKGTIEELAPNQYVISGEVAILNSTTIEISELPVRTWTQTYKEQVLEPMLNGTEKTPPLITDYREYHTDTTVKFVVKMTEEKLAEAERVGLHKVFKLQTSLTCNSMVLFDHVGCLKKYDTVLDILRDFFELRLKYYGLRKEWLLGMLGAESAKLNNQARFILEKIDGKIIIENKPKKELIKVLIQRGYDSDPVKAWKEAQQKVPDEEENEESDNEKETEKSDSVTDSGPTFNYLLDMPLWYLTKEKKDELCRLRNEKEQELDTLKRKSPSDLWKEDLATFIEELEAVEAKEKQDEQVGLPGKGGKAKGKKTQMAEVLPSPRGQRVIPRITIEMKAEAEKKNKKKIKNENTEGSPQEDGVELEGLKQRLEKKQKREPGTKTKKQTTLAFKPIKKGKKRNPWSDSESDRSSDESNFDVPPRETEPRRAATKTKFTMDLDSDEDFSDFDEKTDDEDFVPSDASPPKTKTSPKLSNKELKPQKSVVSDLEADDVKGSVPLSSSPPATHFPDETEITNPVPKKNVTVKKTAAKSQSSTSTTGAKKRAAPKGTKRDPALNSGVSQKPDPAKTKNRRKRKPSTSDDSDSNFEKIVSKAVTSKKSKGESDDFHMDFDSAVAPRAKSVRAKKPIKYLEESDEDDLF
Procedure: The topo IIα catalytic activity was monitored via electrophoresis using topoisomerase II drug screening kit (TopoGEN, Inc., Columbus, OH, USA). Briefly, 20 µL of reaction mixtures contained 0.5 M Tris-HCl, pH 8.0, 1.5 M NaCl, 100 mM MgCl2, 20 mM ATP, 300 µg BSA/mL and 5 mM dithiothreitol. Supercoiled DNA (pHOT1 DNA), supercoiled provided in the kit was determined to be ideal for this assay because it is small and easy to handle and has a large number of topo IIα recognition elements. […] The reaction was terminated by adding 2 µL of 10% sodium dodecyl sulfate (SDS) followed by digestion with 2 µL of proteinase K (50 µg/mL) at 37°C for 15 min to degrade enzyme. After adding 2 µL of loading buffer (0.25% bromophenol blue and 50% glycerol) was added to the mixture, samples were loaded onto 1% agarose gel. Electrophoresis was conducted at 66 V (2 V/cm) for 5 h in TBE buffer using Biorad Electrophoretic Gel System (Bio-Rad, Hercules, CA, USA). Supercoiled DNA (pHOT1 DNA) and relaxed DNA were included in the electrophoresis run as markers for DNA topology. Gels were then stained in 0.5 µg/mL gel red in TBE for 30 min and destained for 15 min in distilled water prior to digital image acquisition using Gel Doc 100 system (Bio-Rad, Hercules, CA, USA).
One unit of topoisomerase II activity was defined as the minimum amount of enzyme required to achieve complete relaxation of […] superhelical pHOT1 DNA in 30 min at 37°C. […] The percent of inhibition was calculated by the following formula: [drawing 1] Where Scontrol is the percent of supercoiled DNA in the control lane (without enzyme and test compounds), S0 is the percent of supercoiled DNA in the lane without test compounds and S is the percent of supercoiled DNA in the lane with test compounds and enzyme.

HepG2 cells [6] = assay: Morphologic observation under inverted phase contrast microscope; format: cell-based, human; conditions: HepG2, 100 µM, 24 h
Procedure: After 24 h of treatment, the morphology of HepG2 cells was observed under an inverted phase contrast microscope (Nikon Eclipse E 100, Nikon, Mississauga, ON, Canada) and were captured at 400X magnification using Infinity digital microscopy camera (Lumenera corporation, Ottawa, ON, Canada).

[7] = test system: caspase 3 activity of HepG2 cells; assay: Caspase-3 colorimetric activity assay; format: cell-based, human; conditions: HepG2, 100 µM, 24 h, compared to DMSO control
Procedure: The activity of caspase 3 enzyme was measured using caspase 3 colorimetric assay kit purchased from Sigma-Aldrich. […] Cells were lysed and the protein content of cell lysate was quantified by the BCA protein assay (Thermo Fisher Scientific Inc., Ottawa, ON, Canada). Caspase-3 activity was measured in the 200 µg of cell lysate using the caspase-specific peptide substrate, DEVD (Asp-Glu-Val-Asp), conjugated to reporter p-nitroanaline (ρ-NA) molecules.

rat hepatocytes (RTCP10) = assay: MTS cell viability assay, rat hepatocytes; format: cell-based; conditions: 100 µM, 24 h
Procedure: as §1, with “Samples with SI values greater than three were considered to have high selectivity towards cancer cells.” left out

SMILES: CC/C=C\C/C=C\C/C=C\C/C=C\C/C=C\CCCC(=O)OC[C@H]1O[C@@H](Oc2cc(O)cc(O)c2C(=O)CCc2ccc(O)cc2)[C@H](O)[C@@H](O)[C@@H]1O [Pz-EPA ester, eicosapentaenoic acid ester (EPA) of Pz]
- SI (selective index) (HepG2 cells [1]; EC50 of HP-F cells/EC50 on HepG2, 24 h): 7.4
- EC50 (HepG2 cells [1]; HepG2, 3 h): 39.4 ± 2.8 µM
- EC50 (HepG2 cells [1]; HepG2, 6 h): 37.8 ± 1.9 µM
- EC50 (HepG2 cells [1]; HepG2, 12 h): 36 ± 2.1 µM
- EC50 (HepG2 cells [1]; HepG2, 18 h): 33.1 ± 2.4 µM
- EC50 (HepG2 cells [1]; HepG2, 24 h): 26.8 ± 1.8 µM
- LDH release (HepG2 cells [2]): 82.7±1.5%
- SI (selective index) (MDA-MB-231 cells; EC50 of HP-F cells/EC50 on MDA-MB-231, 24 h): 7.5
- EC50 (MDA-MB-231 cells; MDA-MB-231, 3 h): 37.9 ± 2.2 µM
- EC50 (MDA-MB-231 cells; MDA-MB-231, 6 h): 33.6 ± 1.8 µM
- EC50 (MDA-MB-231 cells; MDA-MB-231, 12 h): 32.6 ± 1.8 µM
- EC50 (MDA-MB-231 cells; MDA-MB-231, 18 h): 31.5 ± 2.3 µM
- EC50 (MDA-MB-231 cells; MDA-MB-231, 24 h): 26.5 ± 1.1 µM
- EC50 (THP-1 cells; THP-1, 3 h): 27.9 ± 1.5 µM
- EC50 (THP-1 cells; THP-1, 6 h): 19.9 ± 1.1 µM
- EC50 (THP-1 cells; THP-1, 12 h): 17 ± 0.6 µM
- EC50 (THP-1 cells; THP-1, 18 h): 15.8 ± 0.8 µM
- EC50 (THP-1 cells; THP-1, 24 h): 14.8 ± 0.6 µM
- EC50 [3]: > 100 µM

SMILES: CNC(=O)c1cc(Oc2ccc(NC(=O)Nc3ccc(Cl)c(C(F)(F)F)c3)cc2)ccn1 [Sorafenib, sorafenib]
- internucleosomal DNA fragmentation (HepG2 cells [4]): clear DNA ladders
- mitochondrial membrane potential (HepG2 cells [5]): significant (P<0.05) reduction
- EC50 (HepG2 cells [1]; Homo sapiens, HepG2, 3 h): 67.5 ± 5.2 µM
- EC50 (HepG2 cells [1]; Homo sapiens, HepG2, 6 h): 46.7 ± 3.5 µM
- EC50 (HepG2 cells [1]; Homo sapiens, HepG2, 12 h): 17.3 ± 0.8 µM
- EC50 (HepG2 cells [1]; Homo sapiens, HepG2, 18 h): 13.4 ± 0.9 µM
- EC50 (HepG2 cells [1]; Homo sapiens, HepG2, 24 h): 10.7 ± 0.5 µM
- catalytic activity of human DNA topo IIα (pHOT DNA relaxation) (human DNA topo IIα): inhibited catalytic activity
- apoptotic morphological changes (HepG2 cells [6]): morphological changes which are characteristic to apoptosis
- caspase 3 activity [7]: significant (P<0.001) increase
- EC50 ([3]; Hepatocyte): > 100 µM

SMILES: CCCCCCCCCCCCCCCCCC(=O)OC[C@H]1O[C@@H](Oc2cc(O)cc(O)c2C(=O)CCc2ccc(O)cc2)[C@H](O)[C@@H](O)[C@@H]1O [Pz-Stearic acid ester, stearic acid ester of Pz]
- viability of rat hepatocytes (rat hepatocytes (RTCP10)): about 50%
